pKi: −log10 of the molar value.
Biological target: hMC2 receptor (Homo sapiens, UniProt Q01718)
Experiment: hMC2 membrane binding assay ([125I]ACTH (1-39) Tyr23, SPA)
Design: scale not given here
Settings: crude hMC2R membranes from CRE-bla-CHO-K1 cells expressing hMC2 receptor and hMRAP; [125I]ACTH (1-39) Tyr23 0.2 nM; 1.5 hours at room temperature; read-out: MC2R binding potency
Method in brief: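 Ki comes from non-linear regression of SPA scintillation counts. Displacement of 0.2 nM [125I]ACTH(1-39) Tyr23 by compound dose series (usually 0–10,000 nM final) ran 1.5 h at room temperature. Membranes came from CHO-K1 CRE-bla cells stably expressing hMC2R plus hMRAP, bead-coupled in pH 7.4 buffer with 0.2% BSA.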

Chain of hMC2 receptor (Q01718 whole entry): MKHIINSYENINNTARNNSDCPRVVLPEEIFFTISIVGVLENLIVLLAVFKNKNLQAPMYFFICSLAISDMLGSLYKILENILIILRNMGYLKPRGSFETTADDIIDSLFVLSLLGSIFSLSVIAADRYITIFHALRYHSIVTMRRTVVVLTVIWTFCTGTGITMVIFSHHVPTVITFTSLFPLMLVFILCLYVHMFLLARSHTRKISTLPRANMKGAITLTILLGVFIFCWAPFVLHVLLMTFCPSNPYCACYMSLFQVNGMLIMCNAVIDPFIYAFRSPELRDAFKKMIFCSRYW
Chain of hMC2 receptor (Q8TCY5 whole entry partner): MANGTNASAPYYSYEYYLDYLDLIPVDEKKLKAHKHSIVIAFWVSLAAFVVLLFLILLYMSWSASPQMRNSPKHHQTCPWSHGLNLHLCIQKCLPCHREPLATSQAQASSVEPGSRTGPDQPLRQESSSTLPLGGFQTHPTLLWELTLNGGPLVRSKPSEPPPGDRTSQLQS

Structure (SMILES)	pKi
CCOc1ncccc1-c1ccc(N2CCN(C(=O)c3ccc(F)cc3C(F)(F)F)C[C@H]2CC)c(C(=O)NCC2=NCCN2)c1F [Compound 1-182, N-[(4,5-dihydro-1H-imidazol-2-yl)methyl]-3-(2-ethoxypyridin-3-yl)-6-[(2R)-2-ethyl-4-[4-fluoro-2-(trifluoromethyl)benzoyl]piperazin-1-yl]-2-fluorobenzamide]	> 8.00
CCOc1ncccc1-c1ccc(N2CCN(C(=O)c3ccc(Cl)cc3C(F)F)C[C@H]2CC)c(C(=O)NCCNC)c1F [Compound 1-183, 6-[(2R)-4-[4-chloro-2-(difluoromethyl)benzoyl]-2-ethylpiperazin-1-yl]-3-(2-ethoxypyridin-3-yl)-2-fluoro-N-[2-(methylamino)ethyl]benzamide]	> 8.00
CCOc1ncccc1-c1ccc(N2CCN(C(=O)c3ccc(Cl)cc3C(F)F)C[C@H]2CC)c(C(=O)NCCN(C)C)c1F [Compound 1-184, 6-[(2R)-4-[4-chloro-2-(difluoromethyl)benzoyl]-2-ethylpiperazin-1-yl]-N-[2-(dimethylamino)ethyl]-3-(2-ethoxypyridin-3-yl)-2-fluorobenzamide]	> 8.00
CCOc1ncccc1-c1ccc(N2CCN(C(=O)c3ccc(OC)nc3C(F)(F)F)C[C@H]2CC)c(C(=O)NCCNC)n1 [Compound 1-187, 2′-ethoxy-5-[(2R)-2-ethyl-4-[6-methoxy-2-(trifluoromethyl)pyridine-3-carbonyl]piperazin-1-yl]-N-[2-(methylamino)ethyl]-[2,3′-bipyridine]-6-carboxamide]	> 8.00
CCOc1ncccc1-c1ccc(N2CCN(C(=O)c3ccc(Cl)cc3C(F)(F)F)C[C@H]2CC)c(C(=O)NCC2=NCCN2)c1F [Compound 1-188, 6-[(2R)-4-[4-chloro-2-(trifluoromethyl)benzoyl]-2-ethylpiperazin-1-yl]-N-[(4,5-dihydro-1H-imidazol-2-yl)methyl]-3-(2-ethoxypyridin-3-yl)-2-fluorobenzamide]	> 8.00
CCOc1ncccc1-c1ccc(N2CCN(C(=O)c3ccc(F)cc3C(F)F)C[C@H]2CC)c(C(=O)N[C@@H]2CCNC2)c1F [Compound 1-189, 6-[(2R)-4-[2-(difluoromethyl)-4-fluorobenzoyl]-2-ethylpiperazin-1-yl]-3-(2-ethoxypyridin-3-yl)-2-fluoro-N-[(3R)-pyrrolidin-3-yl]benzamide]	> 8.00
CCOc1ncccc1-c1ccc(N2CCN(C(=O)c3ccc(Cl)cc3C(F)F)C[C@H]2CC)c(C(=O)N[C@@H]2CCNC2)c1F [Compound 1-190, 6-[(2R)-4-[4-chloro-2-(difluoromethyl)benzoyl]-2-ethylpiperazin-1-yl]-3-(2-ethoxypyridin-3-yl)-2-fluoro-N-[(3R)-pyrrolidin-3-yl]benzamide]	> 8.00
CCOc1ncccc1-c1ccc(N2CCN(C(=O)c3ccc(Cl)cc3C(F)(F)F)C[C@H]2CC)c(C(=O)NC2CNC2)c1F [Compound 1-198, N-(azetidin-3-yl)-6-[(2R)-4-[4-chloro-2-(trifluoromethyl)benzoyl]-2-ethylpiperazin-1-yl]-3-(2-ethoxypyridin-3-yl)-2-fluorobenzamide]	> 8.00
CCOc1ncccc1-c1ccc(N2CCN(C(=O)c3ccc(Cl)cc3C(F)(F)F)C[C@H]2CC)c(C(=O)N[C@@H]2CCN(C)C2)c1F [Compound 1-199, 6-[(2R)-4-[4-chloro-2-(trifluoromethyl)benzoyl]-2-ethylpiperazin-1-yl]-3-(2-ethoxypyridin-3-yl)-2-fluoro-N-[(3R)-1-methylpyrrolidin-3-yl]benzamide]	> 8.00
CCOc1ncccc1-c1ccc(N2CCN(C(=O)c3ccc(Cl)cc3C(F)(F)F)C[C@H]2CC)c(C(=O)N[C@H]2CCNC2)c1F [Compound 1-200, 6-[(2R)-4-[4-chloro-2-(trifluoromethyl)benzoyl]-2-ethylpiperazin-1-yl]-3-(2-ethoxypyridin-3-yl)-2-fluoro-N-[(3S)-pyrrolidin-3-yl]benzamide]	> 8.00
CCOc1ncccc1-c1ccc(N2CCN(C(=O)c3ccc(Cl)cc3C(F)(F)F)C[C@H]2CC)c(C(=O)N[C@H]2CCN(C)C2)c1F [Compound 1-201, 6-[(2R)-4-[4-chloro-2-(trifluoromethyl)benzoyl]-2-ethylpiperazin-1-yl]-3-(2-ethoxypyridin-3-yl)-2-fluoro-N-[(3S)-1-methylpyrrolidin-3-yl]benzamide]	> 8.00
CCOc1ncccc1-c1ccc(N2CCN(C(=O)c3ccc(OC)cc3C(F)(F)F)C[C@H]2CC)c(C(=O)NC2CNC2)c1F [Compound 1-202, N-(azetidin-3-yl)-3-(2-ethoxypyridin-3-yl)-6-[(2R)-2-ethyl-4-[4-methoxy-2-(trifluoromethyl)benzoyl]piperazin-1-yl]-2-fluorobenzamide]	> 8.00
CCOc1ncccc1-c1ccc(N2CCN(C(=O)c3ccc(OC)cc3C(F)(F)F)C[C@H]2CC)c(C(=O)NC2CN(C)C2)c1F [Compound 1-203, 3-(2-ethoxypyridin-3-yl)-6-[(2R)-2-ethyl-4-[4-methoxy-2-(trifluoromethyl)benzoyl]piperazin-1-yl]-2-fluoro-N-(1-methylazetidin-3-yl)benzamide]	> 8.00
CCOc1ccccc1-c1ccc(N2CCN(C(=O)c3ccc(Cl)cc3C(F)(F)F)C[C@H]2CC)c(C(=O)N[C@@H]2CCN(C)C2)n1 [Compound 1-206, 3-[(2R)-4-[4-chloro-2-(trifluoromethyl)benzoyl]-2-ethylpiperazin-1-yl]-6-(2-ethoxyphenyl)-N-[(3R)-1-methylpyrrolidin-3-yl]pyridine-2-carboxamide]	> 8.00
CCOc1ccc(C(=O)N2CCN(c3ccc(-c4cccnc4OCC)nc3C(=O)NCCN(C)C)[C@H](CC)C2)c(C(F)(F)F)n1 [Compound 1-207, N-[2-(dimethylamino)ethyl]-2′-ethoxy-5-[(2R)-4-[6-ethoxy-2-(trifluoromethyl)pyridine-3-carbonyl]-2-ethylpiperazin-1-yl]-[2,3′-bipyridine]-6-carboxamide]	> 8.00
CCOc1ccccc1-c1ccc(N2CCN(C(=O)c3ccc(Cl)cc3C(F)(F)F)C[C@H]2CC)c(C(=O)NCCNC)n1 [Compound 1-208, 3-[(2R)-4-[4-chloro-2-(trifluoromethyl)benzoyl]-2-ethylpiperazin-1-yl]-6-(2-ethoxyphenyl)-N-[2-(methylamino)ethyl]pyridine-2-carboxamide]	> 8.00
CCOc1ccccc1-c1ccc(N2CCN(C(=O)c3ccc(Cl)cc3C(F)(F)F)C[C@H]2CC)c(C(=O)N[C@@H]2CCNC2)n1 [Compound 1-209, 3-[(2R)-4-[4-chloro-2-(trifluoromethyl)benzoyl]-2-ethylpiperazin-1-yl]-6-(2-ethoxyphenyl)-N-[(3R)-pyrrolidin-3-yl]pyridine-2-carboxamide]	> 8.00
CCOc1ncccc1-c1ccc(N2CCN(C(=O)c3ccc(Cl)cc3C(F)F)C[C@H]2CC)c(C(=O)NCCN(C)C)n1 [Compound 1-210, 5-[(2R)-4-[4-chloro-2-(difluoromethyl)benzoyl]-2-ethylpiperazin-1-yl]-N-[2-(dimethylamino)ethyl]-2′-ethoxy-[2,3′-bipyridine]-6-carboxamide]	> 8.00
CCOc1ncccc1-c1ccc(N2CCN(C(=O)c3ccc(Cl)cc3C(F)(F)F)C[C@H]2CC)c(C(=O)NC2CNC2)n1 [Compound 1-211, N-(azetidin-3-yl)-5-[(2R)-4-[4-chloro-2-(trifluoromethyl)benzoyl]-2-ethylpiperazin-1-yl]-2′-ethoxy-[2,3′-bipyridine]-6-carboxamide]	> 8.00

— US10981894B2, “Melanocortin subtype-2 receptor (MC2R) antagonists and uses thereof” (Crinetics Pharmaceuticals, Inc., priority 2018, dated 2021)
